From patent publication US20060052357A1, “Organometallic anti-tumour agent” (priority 2001, published 2006)

Test system: tumor cell cultures (KML)
Experiment: Suppression of cell proliferation in tumor cell cultures (KML)
Assay type: cell-based, mice
Details: incubation 24 hours
Protocol: The effect of the substances MOC.melphalan and MOC.tegafur of the invention on the proliferative activity, morphology and protein synthesis was investigated on tumor cell cultures (KML). This took place with the mice separated out of the melanoma-16 line. 80 000 cells/ml were distributed in 3 ml of DMEM with the addition of embryonic calf serum, 200 μ/mol of glutamine and antibiotic. After cultivation of the cells at a temperature of 37° C. for 24 hours (logarithmic cell growth phase), the MOC substances were added in the concentration of 10 and 100 μg/ml. After incubation for 24 hours, the number of live cells was determined. In parallel, the fixed specimens of the cells were prepared for morphological analysis.

`CC(=O)C=C(C)[O-].CC(=O)C=C(C)[O-].NC(Cc1ccc(N(CCCl)CCCl)cc1)C(=O)O.[Cu+2]` (centres unmarked) [MOC.melphalan, (C5H7O2)2—Cu—C13H18Cl2N2O2] was tested, and the “Suppression of growth cells” value (10 μg/ml) was 30% and the “Suppression of growth cells” value (100 μg/ml) was 95%.
